Assay results taken from ChEMBL document CHEMBL1146198, “In vitro studies with DQ-113 and comparison fluoroquinolones to determine propensities to select resistance in gram-positive cocci” (2007).
Converted amounts (≈) assume the structure as drawn.

Columns and labels:
Assay type in all cases: functional
Streptococcus pneumoniae [1] = test: Effect on 16 ug/ml ciprofloxacin-selected penicillin-resistant Streptococcus pneumoniae 335 mutant after five passages assessed as susceptibility by agar dilution method
Streptococcus pneumoniae [2] = test: Effect on 2 ug/ml moxifloxacin-selected penicillin-resistant Streptococcus pneumoniae 216 mutant after five passages assessed as susceptibility by agar dilution method
Streptococcus pneumoniae [3] = test: Susceptibility of penicillin-resistant Streptococcus pneumoniae 335 by agar dilution method
Streptococcus pneumoniae [4] = test: Effect on 16 ug/ml ciprofloxacin-selected penicillin-resistant Streptococcus pneumoniae 218 mutant after five passages assessed as susceptibility by agar dilution method
Streptococcus pneumoniae [5] = test: Susceptibility of penicillin-resistant Streptococcus pneumoniae 217 by agar dilution method
Streptococcus pneumoniae [6] = test: Effect on 0.06 ug/ml DQ113-selected penicillin-resistant Streptococcus pneumoniae 218 mutant after five passages assessed as susceptibility by agar dilution method
Streptococcus pneumoniae [7] = test: Effect on 2 ug/ml moxifloxacin-selected penicillin-resistant Streptococcus pneumoniae 218 mutant after five passages assessed as susceptibility by agar dilution method
Streptococcus pneumoniae [8] = test: Effect on 16 ug/ml levofloxacin-selected penicillin-resistant Streptococcus pneumoniae 335 mutant after five passages assessed as susceptibility by agar dilution method
Enterococcus [9] = test: Susceptibility of vancomycin-resistant Enterococcus species single-step mutant by agar dilution method
Streptococcus pneumoniae [10] = test: Effect on 0.5 ug/ml […]-selected penicillin-resistant Streptococcus pneumoniae 335 mutant after five passages assessed as susceptibility by agar dilution method
Streptococcus pneumoniae [11] = test: (§1) Effect on 0.5 ug/ml sitafloxacin-selected penicillin-resistant Streptococcus pneumoniae 216 mutant after five passages assessed as susceptibility by agar dilution method
Streptococcus pneumoniae [12] = test: as §1; remark: listed apart in the source
Streptococcus pneumoniae [13] = test: Effect on 1 ug/ml moxifloxacin-selected penicillin-resistant Streptococcus pneumoniae 335 mutant after five passages assessed as susceptibility by agar dilution method
Streptococcus pneumoniae [14] = test: Susceptibility of penicillin-resistant Streptococcus pneumoniae 216 by agar dilution method
Streptococcus pneumoniae [15] = test: (§2) Effect on 4 ug/ml levofloxacin-selected penicillin-resistant Streptococcus pneumoniae 216 mutant after five passages assessed as susceptibility by agar dilution method
Streptococcus pneumoniae [16] = test: Effect on 4 ug/ml levofloxacin-selected penicillin-resistant Streptococcus pneumoniae 334 mutant after five passages assessed as susceptibility by agar dilution method
Streptococcus pneumoniae [17] = test: Effect on 0.5 ug/ml sitafloxacin-selected penicillin-resistant Streptococcus pneumoniae 334 mutant after five passages assessed as susceptibility by agar dilution method
Streptococcus pneumoniae [18] = test: Susceptibility of penicillin-resistant Streptococcus pneumoniae 218 by agar dilution method
Streptococcus pneumoniae [19] = test: Effect on 0.5 ug/ml sitafloxacin-selected penicillin-resistant Streptococcus pneumoniae 218 mutant after five passages assessed as susceptibility by agar dilution method
Streptococcus pneumoniae [20] = test: Effect on 0.06 ug/ml DQ113-selected penicillin-resistant Streptococcus pneumoniae 334 mutant after five passages assessed as susceptibility by agar dilution method
Streptococcus pneumoniae [21] = test: Effect on 0.03 ug/ml DQ113-selected penicillin-resistant Streptococcus pneumoniae 216 mutant after five passages assessed as susceptibility by agar dilution method
Streptococcus pneumoniae [22] = test: Effect on 32 ug/ml ciprofloxacin-selected penicillin-resistant Streptococcus pneumoniae 334 mutant after five passages assessed as susceptibility by agar dilution method
Streptococcus pneumoniae [23] = test: Effect on 0.5 ug/ml moxifloxacin-selected penicillin-resistant Streptococcus pneumoniae 216 mutant after five passages assessed as susceptibility by agar dilution method
Streptococcus pneumoniae [24] = test: Effect on 8 ug/ml ciprofloxacin-selected penicillin-resistant Streptococcus pneumoniae 216 mutant after five passages assessed as susceptibility by agar dilution method
Streptococcus pneumoniae [25] = test: Effect on 32 ug/ml ciprofloxacin-selected penicillin-resistant Streptococcus pneumoniae 216 mutant after five passages assessed as susceptibility by agar dilution method
Enterococcus [26] = test: Susceptibility of drug-selected vancomycin-resistant Enterococcus species mutant by agar dilution method
Streptococcus pneumoniae [27] = test: Susceptibility of penicillin-resistant Streptococcus pneumoniae 334 by agar dilution method
Streptococcus pneumoniae [28] = test: Effect on 16 ug/ml levofloxacin-selected penicillin-resistant Streptococcus pneumoniae 218 mutant after five passages assessed as susceptibility by agar dilution method
Streptococcus pneumoniae [29] = test: Effect on 0.06 ug/ml DQ113-selected penicillin-resistant Streptococcus pneumoniae 335 mutant after five passages assessed as susceptibility by agar dilution method
Streptococcus pneumoniae [30] = test: Effect on 1 ug/ml moxifloxacin-selected penicillin-resistant Streptococcus pneumoniae 334 mutant after five passages assessed as susceptibility by agar dilution method
Streptococcus pneumoniae [31] = test: Effect on 0.06 ug/ml DQ113-selected penicillin-resistant Streptococcus pneumoniae 216 mutant after five passages assessed as susceptibility by agar dilution method
Streptococcus pneumoniae [32] = test: as §2; remark: listed apart in the source
Staphylococcus aureus = test: Susceptibility of methicillin-sensitive/resistant Staphylococcus aureus single-step mutant by agar dilution method

Structure (SMILES)	MIC (Streptococcus pneumoniae [1])	MIC (Streptococcus pneumoniae [2])	MIC (Streptococcus pneumoniae [3])	MIC (Streptococcus pneumoniae [4])	MIC (Streptococcus pneumoniae [5])	MIC (Streptococcus pneumoniae [6])	MIC (Streptococcus pneumoniae [7])	MIC (Streptococcus pneumoniae [8])	MIC (Enterococcus [9])	MIC (Streptococcus pneumoniae [10])	MIC (Streptococcus pneumoniae [11])	MIC (Streptococcus pneumoniae [12])	MIC (Streptococcus pneumoniae [13])	MIC (Streptococcus pneumoniae [15])	MIC (Streptococcus pneumoniae [16])	MIC (Streptococcus pneumoniae [17])	MIC (Streptococcus pneumoniae [18])	MIC (Streptococcus pneumoniae [19])	MIC (Streptococcus pneumoniae [20])	MIC (Streptococcus pneumoniae [21])	further results
COc1c(N2C[C@@H]3CCCN[C@@H]3C2)c(F)cc2c(=O)c(C(=O)O)cn(C3CC3)c12 [MOXIFLOXACIN]	0.5 µg/mL	8 µg/mL	0.12 µg/mL (≈ 0.299 µM)	4 µg/mL	0.25 µg/mL (≈ 0.623 µM)	1 µg/mL (≈ 2.49 µM)	4 µg/mL	8 µg/mL	8 µg/mL (≈ 19.9 µM)	1 µg/mL	2 µg/mL	2 µg/mL	2 µg/mL	0.25 µg/mL	2 µg/mL	4 µg/mL	0.12 µg/mL (≈ 0.299 µM)	1 µg/mL	2 µg/mL (≈ 4.98 µM)	0.25 µg/mL (≈ 0.623 µM)	MIC (Streptococcus pneumoniae [14]): 0.06 µg/mL (≈ 0.149 µM); MIC (Streptococcus pneumoniae [22]): 1 µg/mL; MIC (Streptococcus pneumoniae [23]): 1 µg/mL; MIC (Streptococcus pneumoniae [24]): 2 µg/mL; MIC (Streptococcus pneumoniae [25]): 0.5 µg/mL; MIC (Enterococcus [26]): 64 µg/mL (≈ 159 µM); MIC (Streptococcus pneumoniae [27]): 0.12 µg/mL (≈ 0.299 µM); MIC (Streptococcus pneumoniae [28]): 1 µg/mL; MIC (Streptococcus pneumoniae [29]): 1 µg/mL (≈ 2.49 µM); MIC (Streptococcus pneumoniae [30]): 0.5 µg/mL; MIC (Streptococcus pneumoniae [31]): 2 µg/mL (≈ 4.98 µM); MIC (Streptococcus pneumoniae [32]): 0.25 µg/mL; MIC (Staphylococcus aureus): 0.5 µg/mL (≈ 1.25 µM)
Cc1c(N2C[C@@H](F)[C@@H](C3(N)CC3)C2)c(F)c(N)c2c(=O)c(C(=O)O)cn([C@@H]3C[C@@H]3F)c12 [DQ-113]	0.007 µg/mL	0.12 µg/mL	0.002 µg/mL (≈ 0.00458 µM)	0.06 µg/mL	0.004 µg/mL (≈ 0.00917 µM)	0.03 µg/mL (≈ 0.0687 µM)	0.03 µg/mL	0.12 µg/mL	2 µg/mL (≈ 4.58 µM)	0.03 µg/mL	0.03 µg/mL	0.03 µg/mL	0.03 µg/mL	0.002 µg/mL	0.03 µg/mL	0.06 µg/mL	0.004 µg/mL (≈ 0.00917 µM)	0.015 µg/mL	0.06 µg/mL (≈ 0.137 µM)	0.007 µg/mL (≈ 0.016 µM)	MIC (Streptococcus pneumoniae [14]): 0.001 µg/mL (≈ 0.00229 µM); MIC (Streptococcus pneumoniae [22]): 0.03 µg/mL; MIC (Streptococcus pneumoniae [23]): 0.015 µg/mL; MIC (Streptococcus pneumoniae [24]): 0.015 µg/mL; MIC (Streptococcus pneumoniae [25]): 0.015 µg/mL; MIC (Enterococcus [26]; read-out: MIC): 8 µg/mL (≈ 18.3 µM); MIC (Streptococcus pneumoniae [27]): 0.004 µg/mL (≈ 0.00917 µM); MIC (Streptococcus pneumoniae [28]): 0.015 µg/mL; MIC (Streptococcus pneumoniae [29]): 0.015 µg/mL (≈ 0.0344 µM); MIC (Streptococcus pneumoniae [30]): 0.015 µg/mL; MIC (Streptococcus pneumoniae [31]): 0.06 µg/mL (≈ 0.137 µM); MIC (Streptococcus pneumoniae [32]): 0.007 µg/mL; MIC (Staphylococcus aureus): 0.03 µg/mL (≈ 0.0687 µM)
O=C(O)c1cn(C2CC2)c2cc(N3CCNCC3)c(F)cc2c1=O [CIPROFLOXACIN]	16 µg/mL	128 µg/mL	1 µg/mL (≈ 3.02 µM)	128 µg/mL	1 µg/mL (≈ 3.02 µM)	8 µg/mL (≈ 24.1 µM)	128 µg/mL	128 µg/mL	16 µg/mL (≈ 48.3 µM)	16 µg/mL	32 µg/mL	32 µg/mL	4 µg/mL	4 µg/mL	32 µg/mL	64 µg/mL	1 µg/mL (≈ 3.02 µM)	16 µg/mL	8 µg/mL (≈ 24.1 µM)	4 µg/mL (≈ 12.1 µM)	MIC (Streptococcus pneumoniae [22]): 32 µg/mL; MIC (Streptococcus pneumoniae [23]): 4 µg/mL; MIC (Streptococcus pneumoniae [24]): 32 µg/mL; MIC (Streptococcus pneumoniae [25]): 32 µg/mL; MIC (Streptococcus pneumoniae [27]): 1 µg/mL (≈ 3.02 µM); MIC (Streptococcus pneumoniae [28]): 8 µg/mL; MIC (Streptococcus pneumoniae [29]): 4 µg/mL (≈ 12.1 µM); MIC (Streptococcus pneumoniae [30]): 8 µg/mL; MIC (Streptococcus pneumoniae [31]): 16 µg/mL (≈ 48.3 µM); MIC (Streptococcus pneumoniae [32]): 16 µg/mL
C[C@H]1COc2c(N3CCN(C)CC3)c(F)cc3c(=O)c(C(=O)O)cn1c23.C[C@H]1COc2c(N3CCN(C)CC3)c(F)cc3c(=O)c(C(=O)O)cn1c23.O [LEVOFLOXACIN]		64 µg/mL						64 µg/mL	16 µg/mL												MIC (Enterococcus [26]; read-out: MIC): 256 µg/mL; MIC (Staphylococcus aureus): 2 µg/mL
N[C@@H]1CN(c2c(F)cc3c(=O)c(C(=O)O)cn(C4C[C@@H]4F)c3c2Cl)CC12CC2 (single isomer, unassigned) [SITAFLOXACIN ANHYDROUS]	0.5 µg/mL	4 µg/mL	0.12 µg/mL (≈ 0.293 µM)	2 µg/mL	0.12 µg/mL (≈ 0.293 µM)	1 µg/mL (≈ 2.44 µM)	1 µg/mL	4 µg/mL	4 µg/mL (≈ 9.76 µM)	2 µg/mL	2 µg/mL	1 µg/mL	0.5 µg/mL	0.12 µg/mL	0.5 µg/mL	0.5 µg/mL	0.12 µg/mL (≈ 0.293 µM)	1 µg/mL	0.5 µg/mL (≈ 1.22 µM)	0.25 µg/mL (≈ 0.61 µM)	MIC (Streptococcus pneumoniae [14]): 0.06 µg/mL (≈ 0.146 µM); MIC (Streptococcus pneumoniae [22]): 0.5 µg/mL; MIC (Streptococcus pneumoniae [23]): 0.5 µg/mL; MIC (Streptococcus pneumoniae [24]): 0.5 µg/mL; MIC (Streptococcus pneumoniae [25]): 1 µg/mL; MIC (Enterococcus [26]; read-out: MIC): 8 µg/mL (≈ 19.5 µM); MIC (Streptococcus pneumoniae [27]): 0.06 µg/mL (≈ 0.146 µM); MIC (Streptococcus pneumoniae [28]): 0.5 µg/mL; MIC (Streptococcus pneumoniae [29]): 0.5 µg/mL (≈ 1.22 µM); MIC (Streptococcus pneumoniae [30]): 0.12 µg/mL; MIC (Streptococcus pneumoniae [31]): 0.5 µg/mL (≈ 1.22 µM); MIC (Streptococcus pneumoniae [32]): 0.5 µg/mL; MIC (Staphylococcus aureus): 0.25 µg/mL (≈ 0.61 µM)
